From patent US20220331301A1, “CYSTIC FIBROSIS TRANSMEMBRANE CONDUCTANCE REGULATOR MODULATORS FOR TREATING AUTOSOMAL RESESSIVE POLYCYSTIC KIDNEY DISEASE” (The Johns Hopkins University, priority 2021, published 2022)
“Also recorded” adds a separate entry of the source.

Key:
[1] = test system: Pkhd1^del4/del4 cholangiocytes; assay: Fura-2 Ca2+ imaging, thapsigargin-induced ER Ca2+ release in cholangiocytes; assay type: cell-based, mice; conditions: VX-809 (10 μM) for 16 h; thapsigargin (4 μM)
Procedure: FIG. 6A, FIG. 6B, and FIG. 6C show intracellular Ca2+ (F340/F380) levels obtained by ratiometric Fura-2 AM analysis of WT and Pkhd1^del4/del4 cholangiocytes, the latter treated with VX-809 (10 μM) for 16 h. (FIG. 6A) Representative traces of ER Ca2+ release in response to thapsigargin (4 μM) in WT and Pkhd1^del4/del4 cholangiocytes the latter treated with VX-809. Resting calcium levels (FIG. 6B and the average amplitude of Ca2+ release (FIG. 6C) in response to thapsigargin;
The ER is one of the major repositories for Ca2+ in the cell. Burgoyne et al., 2015. Misregulation of Ca2+ signaling is a hallmark of ADPKD. Yanda et al., 2019b. To understand whether the ER Ca2+ movement is altered, we measured ER Ca2+ release; we treated the cells with thapsigargin, a specific inhibitor of the ER Ca2+-ATPase that, when applied, allows Ca2+ to leak out of the ER through independent Ca2+-permeable pathways. Jackson et al., 1988; Thastrup et al., 1990; Thastrup et al., 1989.
The cells were loaded with the cell-permeant acetoxymethyl (AM) ester of the calcium indicator fura-2 (fura-2/AM) at 37° C. for 90 min. […] A Zeiss FluorArc mercury lamp was used to excite the cells at 340 and 380 nm, and the emission response was measured at 510 nm. Cell fluorescence was measured in response to excitation for 1000 ms at 340 nm and 200 ms at 380 nm once every 4 s. […]

[2] = test system: CFTR; assay: CFTR colocalization in bile duct epithelia of Pkhd1^del3-4/del3-4 mice; assay type: in vivo; conditions: 30 mg/kg every other day for 30 days
Procedure: FIG. 13A and FIG. 13B show CFTR and CK19 colocalization in WT and Pkhd1^del3-4/del3-4 mice bile duct epithelia. […] Merged red and green channels are shown, wherein yellow indicates colocalization; the white square indicates the area of enlargement shown. FIG. 13B summarizes the Pearson's Correlation coefficient R. Bars represent the means±SEM. Samples were incubated with 5 μg/ml primary antibody CFTR (596) and CK19 (Invitrogen #PA5-29548) in blocking buffer for 16 hours at 4° C. Goat anti-rabbit Alexa Fluor 594 and anti-mouse Alexa Flour 488 conjugated secondary antibodies were used at a 1/250 dilution for 1 hour to label the proteins. Scale bar is 10 μm. **P<0.01, ****P<0.0001.
FIG. 14A and FIG. 14B show CFTR and E-Cadherin colocalization in WT and Pkhd1^del3-4/del3-4 mice bile duct epithelia. […] Merged red and green channels are shown, wherein yellow indicates colocalization; the white square indicates the area of enlargement shown. E-Cadherin is a marker of the lateral junctional membrane of epithelial cells (see, e.g., Bruser (2017) Adherens Junctions on the Move-Membrane Trafficking of E-Cadherin. Cold Spring Harb. Perspect. Biol. 9, a029140, incorporated herein by reference). FIG. 14B summarizes the Pearson's Correlation coefficient R in mutant cells. Samples were incubated with 5 μg/ml primary antibody CFTR (596) and eCadherin (R&D #AF748) in blocking buffer for 16 hours at 4° C. Goat anti-mouse Alexa Fluor 594 and anti-goat Alexa Flour 488 conjugated secondary antibodies were used at a 1/250 dilution for 1 hour to label the proteins. Scale bar is 10 μm. As shown by the data, Pkhd1^del3-4/del3-4 cholangiocytes have much greater colocalization of CFTR with the apical/lateral marker compared to WT cells. VX-809 treatment decreases E-cadherin colocalization of CFTR in mutant mice cells. All images were captured with a 63× oil objective. Significance was analyzed using unpaired t test. […]
FIG. 15A and FIG. 15B show CFTR and Na/K ATPase colocalization in WT and Pkhd1^del3-4/del3-4 mice bile duct epithelia. […] Significance was analyzed using unpaired t test. […]

[3] = test system: CFTR; assay: Confocal colocalization of CFTR with membrane markers in cholangiocytes; assay type: cell-based, mice
Source text: WGA is an apical membrane marker;
FIG. 8B summarizes the Pearson's Correlation coefficient R. Columns represent the means±SEM.
The Na+/K+ ATPase is a marker of the basolateral membrane, Yanda et al., 2019a;
Confocal images taken of cells grown on transwell membranes. All images were captured with a 63× oil objective. Strips represent Z-stacks of confocal images acquired at 0.4 μm z-axis interval. Images from left to right in each row are wild-type and PKHD del4/del4 mutant cells. Scale bar is 10 μm. Unpaired t test. Western blot=Antibody 217 and Confocal=596 from the CFF antibody core at UNC;

Substance: lumacaftor [VX-809]
- thapsigargin-induced ER Ca2+ release [1]: dramatically reduced
- CFTR-CK19 colocalization [2]: significantly lowered the colocalization
- CFTR-Na/K ATPase colocalization (basolateral membrane) [2]: increased the colocalization with the basolateral membrane; also recorded: significantly increased CFTR-Na/K ATPase colocalization
- CFTR-eCadherin colocalization [2]: significantly lowered the colocalization
- CFTR colocalization with Na+/K+ ATPase (basolateral membrane), Pearson's Correlation coefficient R ([3]; Pkhd1del4/del4 cholangiocytes on transwell membranes): increases the colocalization with the basolateral membrane; also recorded: increases basolateral colocalization of CFTR
- CFTR colocalization with WGA (apical cell membrane), Pearson's Correlation coefficient R ([3]; VX-809 (10 μM)): reduces colocalization
- CFTR at the cilia ([3]; summary statement): increases CFTR at the basolateral membrane and at the cilia
